# Measurements taken from publication PMC12795676, “Integrin α5β1 mediates the inhibitory effects of vasoinhibin on angiogenesis and vascular permeability [drawing 1]” (The Journal of Biological Chemistry, 2025).
# Entries after “also recorded” stand apart in the source; their conditions may differ. Residues, ends and D or L forms follow the SMILES beside them. No end group written: not given here. *: point of attachment. Biotin = O=C1N[C@H]2[C@H](CS[C@H]2CCCCC(=O)*)N1
# Key:
# [1] = molecular target: PAI-1-uPA complex (Homo sapiens, UniProt P00749+P05121); assay: ELISA, binding to immobilized PAI-1-uPA complex; conditions: for Binding to immobilized PAI-1-uPA complex: plates coated with 2 μg mL^−1
# Protocol: (§1) Plates coated with 2 μg mL^−1 integrin α5β1, PAI-1, or PAI-1-uPA complex (37 °C, 10 min) were incubated with B-Vi45-51, Vi, or 100 nM ViH46A, ViR48A, or ViH46A/R48A. Competition used excess Src, alanine mutants, or THGR peptides. Detection used horseradish peroxidase antibodies and 3,3′,5,5′-tetramethylbenzidine.
# [2] = molecular target: T1, integrin α5β1 (Homo sapiens, UniProt P05556+P08648); assay: ELISA, binding to immobilized integrin α5β1; conditions: dose-dependent, plates coated with 2 μg mL^−1
# T1 construct: purchased Bio-Techne
# Protocol: (§2) Vi ([49]) and its mutants were produced as reported ([14]). HUVECs were cultured as reported ([14], [50]).
# as §1
# [3] = system: uPAR; assay: Pull-down and Western blot, uPAR; assay type: binding, human (HUVEC lysates); conditions: HUVEC lysates; 500 nM B-Vi45-51, 1 h; Western blot
# Protocol: (§3) To test whether Vi’s HGR motif binds integrin α5β1, human umbilical vein endothelial cells (HUVECs) were treated with a biotinylated peptide comprising residues 45 to 51 (B-Vi45-51) and subjected to pull-down and Western blot.
# (§4) HUVECs treated with 500 nM B-Vi45-51, 20 ng mL^−1 bFGF, and 25 ng mL^−1 VEGF for 1 h were lysated in radioimmunoprecipitation assay, sonicated, incubated 30 min at 37 °C, and pulled down with Dynabeads Streptavidin T1 (Thermo). Eluates were analyzed by a Western blot for integrin α5, PAI-1, and uPAR.
# [4] = system: PAI-1; assay: Pull-down and Western blot, PAI-1; assay type: binding, human (HUVEC lysates); conditions: HUVEC lysates; 500 nM B-Vi45-51, 1 h; Western blot
# Protocol: as §3, §4
# [5] = system: integrin α5; assay: Pull-down and Western blot, integrin α5; assay type: binding, human (HUVEC lysates)
# Protocol: as §3, §4
# [6] = system: HUVEC adhesion to fibronectin; assay: HUVEC adhesion to fibronectin; assay type: cell-based, human; conditions: 1 h
# Protocol: HUVECs (43,000 cells cm^−2) were added and incubated at 37 °C for 1 h. Cells were washed twice and quantified by 3-(4,5-dimethylthiazol-2-yl)-2,5-diphenyltetrazolium bromide.
# [7] = system: endothelial cells; conditions: cited from earlier work
# [8] = system: endothelial cells; conditions: cited from earlier work; remark: listed apart in the source
# [9] = molecular target: T1, integrin α5β1; assay: Competitive ELISA, B-Vi45-51 binding to immobilized integrin α5β1; conditions: excess competitor
# Protocol: as §2, §1
# [10] = molecular target: T2, PAI-1 (Homo sapiens, UniProt P05121); conditions: cited from earlier work
# Excerpt: We recently identified two distinct functional motifs in the Vi molecule: the HGR and the HNLSSEM motifs. […] These discrep ...
# [11] = molecular target: T1, integrin α5β1; assay: Competitive ELISA, Vi binding to integrin α5β1; conditions: excess competitor
# Protocol: as §2, §1
# [12] = system: HUVECs; assay: Matrigel invasion; assay type: cell-based, human; conditions: 100 nM Vi or Vi45-51, 16 h; shITGA5 HUVEC vs WT
# Protocol: As reported ([14]), HUVECs on Matrigel-coated Transwells were treated with 100 nM of Vi45-51 or Vi. After 16 h, invading cells were counted.
# [13] = system: HUVEC monolayers; assay: Endothelial permeability (TEER); assay type: cell-based, human; conditions: 100 nM Vi or Vi45-51 for 1 h, then 50 ng mL^−1 VEGF; TEER 120 min; n = 6
# Protocol: HUVECs were grown to confluency on 0.4 μm pore Transwells, treated with 100 nM Vi45-51 or Vi for 1 h, then stimulated with 50 ng mL^−1 VEGF. Transendothelial electrical resistance was recorded for 120 min using the EVOM2 meter (World Precision Instruments).
# [14] = system: HUVECs; assay: Endothelial cell proliferation (EdU); assay type: cell-based, human; conditions: 24 h; for Effect of ITGA5 knockdown on inhibition of endothelial proliferation: 100 nM Vi or Vi45-51, bFGF + VEGF, shITGA5 HUVEC vs WT; for Effect of anti-α5β1 antibody on inhibition of VEGF + bFGF-induced proliferation: 100 nM Vi or Vi45-51, 20 μg mL^−1 anti-α5β1
# Protocol: As reported ([14]), HUVECs were serum-starved for 8 h and treated with 100 nM Vi45-51 or Vi, bFGF + VEGF, and 20 μg mL^−1 anti-α5β1 antibody in 20% fetal bovine serum for 24 h. EdU incorporation was detected with Azide Fluor 545 (Sigma).
# [15] = system: HUVECs; assay: Tube formation on Matrigel; assay type: cell-based, human; conditions: 100 nM Vi or Vi45-51, 6 h; shITGA5 HUVEC vs WT
# Protocol: HUVEC tubular network formation was evaluated as reported ([14], [51]). HUVECs were seeded on Matrigel and treated with 100 nM Vi or Vi45-51 for 6 h. Micrographs were analyzed by Angiogenesis Analyzer ([52]).
# [16] = system: Matrigel plug vascularization (Pecam1); assay: Matrigel plug assay; assay type: in vivo, male C57BL/6 mice; conditions: mice, s.c. plugs, 100 nM Vi or Vi45-51, bFGF + VEGF, 20 μg mL^−1 anti-α5β1; 7 days; Pecam1 mRNA
# Protocol: As previously described ([14], [53], [54]), 6-week-old male C57BL/6 mice were subcutaneously injected with two 0.5 ml plugs supplemented with 300 ng mL^−1 bFGF and 100 ng mL^−1 VEGF, 100 nM Vi or Vi45-51, and 20 μg mL^−1 anti-integrin α5β1 antibody. After 7 days, plugs were collected, and Pecam1, relative to GAPDH, was quantified by quantitative PCR as reported ([14]). Procedures followed institutional ethical approval (Bioethics Committee, Instituto de Neurobiología, UNAM) and were in accordance with the Guide for the Care and Use of Laboratory Animals (http://www.ncbi.nlm.nih.gov/books/NBK54050/).
# [17] = molecular target: T2, PAI-1; assay: ELISA, binding to immobilized PAI-1
# Protocol: as §1
# [18] = system: PAI-1 knockout mice; conditions: cited from earlier work
# Excerpt: The HGR motif is the sole antiangiogenic determinant of Vi, as its mutation leads to the loss of Vi’s antiangiogenic function ([14]). Given that Vi binds to integrin α5β1 via its HGR motif and that knockdown of ITGA5 abolishes the effects of Vi on endothelial cell proliferation, invasion, vascular permeability, and tube formation in vitro, while an antibody against integrin α5β1 suppresses the antiangiogenic effect of Vi in the in vivo Matrigel plug assay, integrin α5β1 emerges as the binding partner mediating the antiangiogenic activity of Vi. Integrin α5β1 is critical for angiogenesis ([16]) ...
# [19] = system: HUVECs; assay: Apoptosis (Cell Death Detection ELISA); assay type: cell-based, human; conditions: 100 nM Vi, 24 h; shITGA5 HUVEC vs WT
# Protocol: As reported ([13]), HUVEC were treated with 100 nM Vi or Vi45-51 for 24 h, and apoptosis was analyzed using the Cell Death Detection ELISA kit (Roche).
compound,measurement,setting,value
CC[C@H](C)[C@H](NC(=O)[C@H](Cc1ccccc1)NC(=O)CNC(=O)[C@H](CCCNC(=N)N)NC(=O)CNC(=O)[C@H](Cc1c[nH]cn1)NC(=O)[C@@H](NC(=O)CCCC[C@@H]1SC[C@@H]2NC(=O)N[C@@H]21)[C@@H](C)O)C(=O)O [B-Vi45-51] (Biotin-THGRGFI-OH; N-terminus and C-terminus assumed),Binding to immobilized PAI-1-uPA complex,[1],not to PAI-1 or the PAI-1-uPA complex
same,Binding to immobilized integrin α5β1,[2],dose-dependent binding
same,Pull-down of uPAR,[3],failed to pull down
same,Pull-down of PAI-1,[4],failed to pull down
same,Pull-down of integrin α5,"[5]; HUVEC lysates, 500 nM B-Vi45-51, 1 h, Dynabeads Streptavidin T1, Western blot, ∼145 kDa",Integrin α5 was precipitated
same,Effect of VEGF + bFGF on pull-down of integrin α5,"[5]; HUVECs, 500 nM B-Vi45-51, 20 ng mL^−1 bFGF, 25 ng mL^−1 VEGF, 1 h",did not affect binding
"N=C(N)NCCC[C@H](N)C(=O)NCC(=O)N[C@@H](CC(=O)O)C(=O)O [RGD, reference compound]",IC50,"[6]; dose–response, fibronectin 1 μg cm^−2, 37 °C, MTT read-out, nonlinear regression (r^2 > 0.8), at least three independent experiments, read-out: IC50, inhibition of HUVEC adhesion to fibronectin",61.3 nM
"Ac-PHSCN-NH2 [ATN-161, PHSRN-based peptide (Ac-PHSCN-NH2), reference compound]",Induction of apoptosis (anoikis),[7],induce apoptosis through anoikis
same,Disruption of endothelial adhesion,[8],disrupt endothelial adhesion
"H46A: alanine-scanning mutant peptide, alanine substitution at H46 (TAGRGFI)",Inhibition of B-Vi45-51 binding to integrin α5β1,[9],abolished inhibition
HNLSSEM [HNLSSEM motif],Apoptosis induction via uPAR-dependent mechanism,[7],induces endothelial apoptosis through a uPAR-dependent mechanism
same,Binding to PAI-1 (literature),[10],mediates Vi binding to PAI-1
R48A: Vi45-51 mutated by alanine in R48 (THGAGFI),Inhibition of B-Vi45-51 binding to integrin α5β1,[9],abolished inhibition
same,"HUVEC adhesion to fibronectin, dose–response","[6]; fibronectin 1 μg cm^−2, 37 °C",did not
THGR [HGR-containing tetrapeptide THGR],Inhibition of Vi binding to integrin α5β1,[11],blocked Vi–integrin interaction
THGRGFI [Vi45-51],Effect of ITGA5 knockdown on inhibition of invasion,[12],abolished the inhibitory effects
same,Inhibition of B-Vi45-51 binding to integrin α5β1,[9],inhibited B-Vi45-51 binding
same,HUVEC adhesion to fibronectin at 1 μM,"[6]; 1 μM, fibronectin 1 μg cm^−2, 37 °C, Fig. 4C",enhanced fibronectin-mediated adhesion
same,EC50,[6],4.55 nM
same,"HUVEC adhesion to fibronectin, dose–response","[6]; fibronectin 1 μg cm^−2, 37 °C",increased the adhesion in a dose-dependent manner
same,Effect of ITGA5 silencing on inhibition of VEGF-induced permeability,[13],ablated the inhibitory effect
same,Effect of ITGA5 knockdown on inhibition of endothelial proliferation,[14],abolished the inhibitory effects
same,Effect of anti-α5β1 antibody on inhibition of VEGF + bFGF-induced proliferation,[14],prevented the inhibitory effects
same,Effect of ITGA5 knockdown on inhibition of tube formation,[15],abolished the inhibitory effects
same,Effect of anti-α5β1 antibody on inhibition of Matrigel plug vascularization,[16],prevented the inhibitory effects
cilengitide [reference compound],Induction of apoptosis (anoikis),[7],induce apoptosis through anoikis
same,Disruption of endothelial adhesion,[8],disrupt endothelial adhesion
vasoinhibin [Vi],Kd,"[1]; immobilized PAI-1-uPA complex, at least three independent experiments",406 nM
same,Binding to immobilized PAI-1-uPA complex,[1],bound all three
same,Kd,"[17]; immobilized PAI-1, at least three independent experiments",528 nM
same,Binding to immobilized PAI-1,[17]; plates coated with 2 μg mL^−1,bound all three
same,Effect of antibodies against integrin α5β1 on Vi-induced endothelial cell apoptosis,[7],partially prevented
same,Effect of ITGA5 knockdown on inhibition of invasion,[12],abolished the inhibitory effects
same,Binding to immobilized integrin α5β1,[2],bound all three
same,Effect of ITGA5 silencing on inhibition of VEGF-induced permeability,[13],ablated the inhibitory effect
same,Effect of ITGA5 knockdown on inhibition of endothelial proliferation,[14],abolished the inhibitory effects
same,Effect of anti-α5β1 antibody on inhibition of VEGF + bFGF-induced proliferation,[14],prevented the inhibitory effects
same,Antiangiogenic and antitumor effects in PAI-1 knockout mice,[18],lost in PAI-1 knockout mice
same,Effect of ITGA5 knockdown on inhibition of tube formation,[15],abolished the inhibitory effects
same,Effect of anti-α5β1 antibody on inhibition of Matrigel plug vascularization,[16],prevented the inhibitory effects
same,Effect of ITGA5 knockdown on Vi-induced apoptosis,[19],"did not abolish Vi-induced apoptosis; in fact, it was even slightly increased; also recorded: did not prevent, but slightly enhanced"
